Results taken from PMC7399337, “Biological Properties and Absolute Configuration of Flavanones From Calceolaria thyrsiflora Graham” (Frontiers in Pharmacology, 2020).

Tested on: MEF primary mouse embryonic fibroblast
Assay: In vitro cytotoxic activity, CyQuant cell viability, 72 h
Assay type: cell-based
Conditions: MEF (non-cancerous cells); 72 h
Method: The used cell lines include MDA-MB-231 human breast adenocarcinoma cells, B16-F10 mouse metastatic melanoma cells and MEF primary mouse embryonic fibroblast. Cells were maintained in a DMEM high glucose medium (Mediatech, Manassas, VA, USA) supplemented with 10% (MDA-MB-231 and B16-F10) or 15% (MEF) heat-inactivated fetal bovine serum (HyClone Laboratories, South Logan, USA), 100 IU ml^-1 penicillin and 100 μg ml^-1 streptomycin while maintained at 37°C in a 5% CO2 humidified atmosphere. Cell viability was measured using a CyQuant® Direct Cell Proliferation Assay Kit (Life Technologies, Grand Island, NY, USA) following the manufacturer’s instruction. Briefly, 5,000 cells per well were seeded onto a flat-bottom 96-well plate in 200 μL final volume. Six hours after seeding, the culture medium was replaced by the medium containing the tested compounds at 0.01 to 100 µM concentrations in DMSO (0.1% final concentration) during 72 h. Untreated cells (medium containing only 0.1% DMSO) were used as controls. At the end of the incubation, 100 μL of culture medium was removed from each well and replaced by detection reagent solution provided by the kit (which is a 1:5 mixture of the reagent CyQUANT®, direct nucleic acid stain and the reagent labeled as CyQUANT® direct background suppressor I). Cells were incubated for 1 h and fluorescence emission was measured at 535 nm with excitation at 480 nm in a microplate reader (Infinite 200 PRO, Tecan, Grödig, Austria). At least four independent experiments were performed for each concentration. The results from each experiment were transformed into percentage of controls and the LC50 values were graphically obtained from the dose-response curves. The LC50 value was obtained adjusting the dose-response curve to sigmoidal curves (variable slope) using the GraphPad Prisma 6.0 software ([GraphPad-Software, 2015]).

In the case of `COc1cc(O)c2c(c1)O[C@H](c1ccc(O)cc1)CC2=O` [Compound 1, (-)-(2S)-5,4’-dihydroxy-7-methoxyflavanone], the “LC50 ± SD” value is reported as “no significant cytotoxic activity”.
